Like-named read-outs stand apart in the source and are kept apart here. Marks after values point to notes of the source that are not given here.
What was measured:
[1] = system: 786-O human renal cell carcinoma (RCC) xenograft; assay: Tumor growth inhibition in 786-O RCC xenograft; assay type: in vivo, nude mice
Protocol: (§1) Xenograft tumors were established by s.c. implantation of 5×10^6 786-O human renal cell carcinoma (RCC), 5×10^6 A375 melanoma, or 1×10^6 H460 human non-small cell lung cancer (NSCLC) cells into the flanks of nude mice, or 5×10^6 PLC/PRF/5 hepatocellular carcinoma (HCC) into the flanks of Severe Combined Immunodeficient (SCID) mice. Tumor hypoxia was detected by pimonidazole immunostaining, and morphometric analysis was performed to determine the hypoxic fraction. When tumor size was approximately 100-150 mm^3, sunitinib or sorafenib was administered daily. Sunitinib at 20, 40, or 80 mg/kg was administered p.o. daily for 3 weeks (QDx21). For all of these studies except the study utilizing the A375 melanoma model, TH-302 administration began one week after antiangiogenic agent administration. In the A375 melanoma model, TH-302 administration was begun on the same day as sorafenib administration. TH-302 at 50 mg/kg was administered i.p. daily for 5 days on and 2 days off (QDx5) for 2 weeks. Sunitinib was administered 4 hours before TH-302 on days when both agents were given.
The following tables summarize the data obtained in the studies described above.

[2] = system: H460 human non-small cell lung cancer (NSCLC) xenograft; assay: Tumor growth inhibition in H460 NSCLC xenograft; assay type: in vivo, nude mice
Protocol: as §1
(§2) In another study, sunitinib was administered for 5 weeks, and TH-302 was administered for 4 weeks, beginning one week after sunitinib therapy was initiated, in accordance with the methods of the invention.

[3] = system: PLC/PRF/5 hepatocellular carcinoma (HCC) xenograft; assay: Tumor growth inhibition in PLC/PRF/5 HCC xenograft; assay type: in vivo, SCID mice; details: HCC: PLC/PRF/5; Sorafenib 20 mpk QD×16; TH-302 50 mpk
Protocol: as §1

A375 melanoma xenograft = assay: Tumor growth inhibition in A375 melanoma xenograft; assay type: in vivo, nude mice; details: Sorafenib 20 mpk QD×16, TH-302 50 mpk begun on the same day as sorafenib
Protocol: as §1

[4] = Maximum body weight loss (toxicity indicator) in xenograft-bearing nude mice
Protocol: as §1, §2

[5] = Maximum body weight loss in PLC/PRF/5 xenograft-bearing SCID mice; details: HCC: PLC/PRF/5; Sorafenib 20 mpk; TH-302 50 mpk; vehicle 5.9
Protocol: as §1, §2

[6] = system: 786-O human renal cell carcinoma (RCC) xenograft; assay: Tumor growth inhibition in 786-O RCC xenograft; assay type: in vivo, nude mice; remark: listed apart in the source
breast cancer = details: cited from earlier work
[7] = system: metastatic renal cell carcinoma (mRCC); details: cited from earlier work
RCC [8] = details: cited from earlier work
[9] = system: 786-O RCC xenograft tumors; assay: Antiangiogenic-induced hypoxia in 786-O xenograft tumors (pimonidazole / Hoechst 33342, morphometric analysis); assay type: in vivo, nude mice; details: for tumor hypoxia volume: vehicle 0.8±0.2%; for hypoxic fraction in the 786-O xenograft tumor: morphometric analysis, vehicle 1.4±0.9%
Protocol: To measure the extent of tumor hypoxia and to illustrate methods for increasing the hypoxic fraction of a tumor with an antiangiogenic agent, so as to render the tumor more susceptible to treatment with a hypoxia activated prodrug, nude mice bearing 786-O RCC xenograft tumors were randomized into 3 groups, vehicle (8 mice), sunitinib (Sutent, Pfizer) 20 mg/kg and 40 mg/kg, QDx5, oral, respectively (6 mice each). Seventy one hours after the last sunitinib administration, pimonidazole was administered. Hoechst 33342 was administered 1 hour after administering pimonidazole. About a minute after administering the Hoechst 33342, the animals were sacrificed and tissues harvested.
Sorafenib 20 mpk (mgs per kilogram) and 40 mpk were orally administered once daily for 7 days. Pimonidazole was administered 3 h after the last sorafenib administration. Hoechst 33342 was administered 1 h after administering pimonidazole. About a minute after administering the Hoechst 33342, the animals were sacrificed and tissues harvested.

RCC [10] = details: cited from earlier work; remark: listed apart in the source
[11] = system: PLC/PRF/5 hepatocellular cancer xenograft tumor; assay: Sorafenib-induced hypoxia in PLC/PRF/5 xenograft tumors; details: vehicle 4.3±0.4%
Protocol: The hypoxia level in another cancer, hepatocellular cancer PLC/PRF/5, after sorafenib administration was also measured. The measurement was carried out as above, except that sorafenib was administered at 20 or 40 mg/kg once daily for 8 days.

[12] = system: H460 non small cell lung cancer (NSCLC) xenograft tumors; assay: Sunitinib-induced hypoxia in H460 xenograft tumors (pimonidazole / Hoechst 33342, morphometrics); assay type: in vivo, nude mice; details: sunitinib 40 mg/kg QDx5 intraperitoneally; vehicle 7.3±3.8%; p<0.05
Protocol: To measure the extent of tumor hypoxia and to illustrate methods for increasing the hypoxic fraction of a tumor with an antiangiogenic agent, so as to render the tumor more susceptible to treatment with a hypoxia activated prodrug, nude mice bearing H460 non small cell lung cancer (NSCLC) xenograft tumors were intraperitoneally administered sunitinib with the dose of 20 mg/kg and 40 mg/kg. QDx5, respectively (5 mice each), and compared with vehicle treated animals (5 mice). […] The percent hypoxic fraction in the harvested tissue was analyzed by morphometrics.

[13] = RCC: 786-O, Sorafenib 30 mpk QD×14, TH-302 50 mpk QDx5/week for two weeks
[14] = H460, Sunitinib 3 wks + TH-302 2 wks study, TH-302 50 mpk monotherapy
[15] = H460, Sunitinib 5 wks + TH-302 4 wks study, TH-302 50 mpk monotherapy
[16] = NSCLC: H460, Sorafenib 20 mpk QD×16, TH-302 50 mpk
[17] = Melanoma: A375, Sorafenib 20 mpk, TH-302 50 mpk
[18] = NSCLC: H460, Sorafenib 20 mpk, TH-302 50 mpk
[19] = RCC: 786-O, Sorafenib 30 mpk, TH-302 50 mpk
[20] = H460, Sunitinib 5 wks + TH-302 4 wks, sunitinib 40 mpk, alone or with TH-302
[21] = H460, Sunitinib 5 wks + TH-302 4 wks, sunitinib 80 mpk, alone or with TH-302

With `Cn1c(COP(=O)(NCCBr)NCCBr)cnc1[N+](=O)[O-]` [TH-302] the “TGI (%)” value ([1]; 786-O, TH-302 50 mpk i.p. QDx5 for 2 weeks, monotherapy) was 9.9%, the “TGI (%)” value [1, 13] was 15% and the “TGI (%)” value [2, 14] was 67.6* %. The “TGI (%)” value [2, 15] was 81* %, the “TGI (%)” value [2, 16] was 78 * % and the “TGI (%)” value [3] was 15%. For the same compound, the “TGI (%)” value (A375 melanoma xenograft) was 46 * %, the “Max. BW loss (%)” value ([4]; 786-O RCC, TH-302 50 mpk from Day 1, alone or with Everolimus 5 mpk) was 0.2% and the “Max. BW loss (%)” value ([4]; 786-O RCC, TH-302 50 mpk from Day 8, alone or with Everolimus 5 mpk) was 0%. The “Max. BW loss (%)” value ([4]; 786-O study, TH-302 50 mpk monotherapy) was 0.1%, the “Max. BW loss (%)” value [4, 14] was 7.1% and the “Max. BW loss (%)” value [4, 15] was 0.6%. The “Max. BW loss (%)” value [4, 17] was 1.8%, the “Max. BW loss (%)” value [4, 18] was 4.8% and the “Max. BW loss (%)” value [4, 19] was 0%. For the same compound, the “Max. BW loss (%)” value [5] was 6.3%, the TGI ([6]; TH-302 50 mgs per kg QD×19 or 12 days from Day 8, everolimus QD×19) was 16% and the “TGI (%)” value ([6]; TH-302 50 mpk from Day 1 (QD×19), alone or with Everolimus 5 mpk QD×19) was 15.7%. For the same compound, the “TGI (%)” value ([6]; TH-302 50 mpk from Day 8 (12 days), alone or with Everolimus 5 mpk QD×19) was 14.2%.

For `CC(=O)O[C@H]1C(=O)[C@@]2(C)[C@H]([C@H](OC(=O)c3ccccc3)[C@]3(O)C[C@H](OC(=O)[C@H](O)[C@@H](NC(=O)c4ccccc4)c4ccccc4)C(C)=C1C3(C)C)[C@]1(OC(C)=O)CO[C@@H]1C[C@@H]2O` [paclitaxel], the OS (breast cancer) is listed as 26.5 months and the “median PFS” value (breast cancer) is listed as 5.8 months.

For IFN-α, the OS [7] is listed as 23 months, the “median PFS” value [7] is listed as 5.4 months and the OS (RCC [8]) is listed as 21.8 months. The “median PFS” value (RCC [8]) was 5 months.

With `CO[C@H]1C[C@@H]2CC[C@@H](C)[C@@](O)(O2)C(=O)C(=O)N2CCCC[C@H]2C(=O)O[C@H]([C@H](C)C[C@@H]2CC[C@@H](OCCO)[C@H](OC)C2)CC(=O)[C@H](C)/C=C(\C)[C@@H](O)[C@@H](OC)C(=O)[C@H](C)C[C@H](C)/C=C/C=C/C=C/1C` [Everolimus, everolimus] the TGI ([1]; 786-O RCC, TH-302 50 mgs per kg QD×19 or 12 days from Day 8, everolimus QD×19) was “less than 50%”, the “Max. BW loss (%)” value ([4]; 786-O RCC, Everolimus 5 mpk monotherapy) was 0% and the “TGI (%)” value ([6]; Everolimus 5 mpk QD×19 monotherapy) was 48.8* %.

With `CNC(=O)c1cc(Oc2ccc(NC(=O)Nc3ccc(Cl)c(C(F)(F)F)c3)cc2)ccn1` [Sorafenib, sorafenib] the tumor hypoxia volume ([9]; sorafenib 20 mg/kg orally once daily for 7 days) was 3.5±1.6%, the tumor hypoxia volume ([9]; sorafenib 40 mg/kg orally once daily for 7 days, p<0.05 vs. vehicle) was 10±2.5% and the “TGI (%)” value [1, 13] was 38 * %. For the same compound, the “TGI (%)” value [2, 16] was 74 * %, the “TGI (%)” value [3] was 56 * % and the “TGI (%)” value (A375 melanoma xenograft) was 67 * %. The “Max. BW loss (%)” value [4, 17] was 3.1%, the “Max. BW loss (%)” value [4, 18] was 4.8% and the “Max. BW loss (%)” value [4, 19] was 0.4%. The “Max. BW loss (%)” value [5] was 5.6%, the “median PFS” value (RCC [10]; placebo 12 weeks) was 24 weeks and the OS (RCC [10]; placebo 14.3 months) was 17.8 months. It also gave a tumor hypoxia volume ([11]; sorafenib 20 mg/kg once daily for 8 days, p<0.05 vs. vehicle) of 6.5±0.6% and a tumor hypoxia volume ([11]; sorafenib 40 mg/kg once daily for 8 days, p<0.001 vs. vehicle) of 9.3±0.7%.

With `CCN(CC)CCNC(=O)c1c(C)[nH]c(/C=C2\C(=O)Nc3ccc(F)cc32)c1C` [Sunitinib, sunitinib] the “hypoxic fraction in the 786-O xenograft tumor” value ([9]; sunitinib 20 mg/kg QDx5 oral) was 1.6±0.9%, the “hypoxic fraction in the 786-O xenograft tumor” value ([9]; sunitinib 40 mg/kg QDx5 oral) was 17.2±0.9% and the “tumor hypoxia volume (percent hypoxic fraction)” value [12] was 24±3.2%. For the same compound, the “TGI (%)” value ([1]; 786-O, sunitinib 20 mpk p.o. QDx21, alone or with TH-302 50 mg/kg begun one week later) was 16.2%, the “TGI (%)” value ([1]; 786-O, sunitinib 40 mpk p.o. QDx21, alone or with TH-302 50 mg/kg begun one week later) was 37.9% and the “TGI (%)” value ([1]; 786-O, sunitinib 40 mpk p.o. QDx21, alone or with TH-302 50 mg/kg begun one week later, listed as sunitinib) was 38%. The “TGI (%)” value ([2]; H460, Sunitinib 3 wks + TH-302 2 wks, sunitinib 40 mpk, alone or with TH-302 50 mg/kg) was 72.9* %, the “TGI (%)” value ([2]; H460, Sunitinib 3 wks + TH-302 2 wks, sunitinib 80 mpk, alone or with TH-302 50 mg/kg) was 77.7* % and the “TGI (%)” value ([2]; H460, Sunitinib 3 wks + TH-302 2 wks, sunitinib 80 mpk, alone or with TH-302 50 mg/kg, listed as sunitinib) was 78%. For the same compound, the “TGI (%)” value [2, 20] was 83* %, the “TGI (%)” value [2, 21] was 96* % and the “Max. BW loss (%)” value ([4]; 786-O study, sunitinib 20 mpk, alone or with TH-302) was 0%. For the same compound, the “Max. BW loss (%)” value ([4]; 786-O study, sunitinib 40 mpk, alone or with TH-302) was 0%, the “Max. BW loss (%)” value ([4]; H460, Sunitinib 3 wks + TH-302 2 wks, sunitinib 40 mpk, alone or with TH-302) was 0% and the “Max. BW loss (%)” value ([4]; H460, Sunitinib 3 wks + TH-302 2 wks, sunitinib 80 mpk, alone or with TH-302) was 0%. The “Max. BW loss (%)” value [4, 20] was 0.1% and the “Max. BW loss (%)” value [4, 21] was 0.5%.

— patent US20190060275A1, “Administration of hypoxia activated prodrugs and antiangiogenic agents for the treatment of cancer” (Molecular Templates, Inc., priority 2010, published 2019)
